Columns and labels:
[1] = test system: gastric epithelial adenocarcinoma (AGS) cells; assay: Antiproliferative assay (MTT reduction, 3 days); format: cell-based, human; settings: >100 µM considered inactive, read-out: IC50 ± SD, AGS
Experimental: The antiproliferative activity towards the following human cell lines was determined: normal lung fibroblasts (MRC-5), gastric epithelial adenocarcinoma (AGS), lung cancer (SK-MES-1) and bladder carcinoma (J82) cells. […] When comparing the pairs 3–4, 5–6 and 7–8 differing in one CH2 unit in the linker, the activity decreased with linker length.
All human cell lines used in this work were purchased from the American Type Culture Collection (ATCC, Manasas, VA, USA). Normal lung MRC-5 fibroblasts (CCL-171), SK-MES-1 lung cancer cells (HTB-58) and J82 bladder carcinoma cells (HTB-1) were grown as monolayers in minimum essential Eagle medium (MEM) with Earles’s salts, 2 mM L-glutamine and 1.5 g∙L^−1 sodium bicarbonate. Gastric adenocarcinoma AGS cells (CRL-1739) were grown as monolayers in Ham F-12 medium containing 1 mM L-glutamine and 1.5 g∙L^−1 sodium bicarbonate. All media were supplemented with 10% heat-inactivated FBS, 100 IU∙mL^−1 penicillin and 100 µg∙mL^−1 streptomycin. Cells were grown in a humidified incubator with 5% CO2 in air at 37 °C. For the antiproliferative assay, cells were plated at a density of 5 × 10^4 cells∙mL^−1. Cells were seeded in 96-well plates (100 µL∙well^−1). One day after seeding, cells were treated with medium containing the compounds at concentrations ranging from 0 up to 100 µM during 3 days. The compounds were dissolved in DMSO (1% final concentration) and complete medium. Untreated cells (medium containing 1% DMSO) were used as 100% viability controls. […] Each concentration was tested in sextuplicate and experiments were repeated 2 times. Cell viability was determined by means of the MTT reduction assay at the end of the incubation with the products. The results were transformed to percentage of controls and the IC50 value was obtained adjusting the dose-response curve to a sigmoidal model. The software used was OriginPro 8.1 [30].

C. albicans ATCC 10231 = assay: Antifungal broth microdilution (CLSI M27-A3), growth inhibition; format: cell-based, Candida albicans; settings: for MIC50 (minimum concentration to inhibit 50% of fungal growth), C. albicans: C. albicans ATCC 10231
Experimental: (§1) The antifungal properties of compounds 1–24 against two clinical important fungal species, C. albicans ATCC 10231 and C. neoformans ATCC 32264 were investigated. Results were expressed as the percentages of inhibition of each fungus in the range 250–3.9 μg∙mL^−1 by using the standardized microbroth dilution method M-27A3 of Clinical and Laboratory Standards Institute which assures reliable and reproducible results.
(§2) For the antifungal evaluation, standardized strains from the American Type Culture Collection (ATCC), Rockville, MD, USA, were used. The microorganisms included yeasts (Candida albicans ATCC 10231 and Cryptococcus neoformans ATCC 32264). Strains were grown on Sabouraud-chloramphenicol agar slants for 48 h at 30 °C, maintained on slopes of Sabouraud-dextrose agar (SDA, Oxoid), and subcultured every 15 days to prevent pleomorphic transformations. Inocula of cell or spore suspensions were obtained according to reported procedures and adjusted to 1–5 × 10^3 cells/spores with colony forming units (CFU)/mL [29].
(§3) Broth microdilution techniques were performed in 96-well microplates according to the Clinical and Laboratory Standards Institute Reference Method for Broth Dilution Antifungal Susceptibility Testing of Yeasts, Approved Standard M27-A3 [29]. For the assay, compound test wells (CTWs) were prepared with stock solutions of each compound in DMSO (maximum concentration ≤1%), diluted with RPMI-1640, to final concentrations of 250–3.9 μg∙mL^−1. An inoculum suspension (100 μL) was added to each well (final volume in the well = 200 μL). A growth control well (GCW) (containing medium, inoculum, and the same amount of DMSO used in a CTW, but compound-free) and a sterility control well (SCW) (sample, medium, and sterile water instead of inoculum) were included for each fungus tested. Microtiter trays were incubated in a moist, dark chamber at 30 °C for 48 h for both yeasts. Microplates were read in a VERSA Max microplate reader (Molecular Devices, Sunnyvale, CA, USA). Amphotericin B (Sigma-Aldrich) was used as positive control. Tests were performed in triplicate. Reduction of growth for each compound concentration was calculated as follows: % of inhibition = 100 − (OD 405 CTW − OD 405 SCW)/(OD 405 GCW − OD 405 SCW). The means ± SEM were the results of triplicate tests. Three endpoints were defined from the assay explained above and the dose-response curves. Minimum Inhibitory concentration (MIC) resulting in total fungal growth inhibition was named MIC100 while MIC50 was defined as the minimum concentration that inhibits 50% of the fungal growth.

C. neoformans ATCC 32264 = assay: as above; format: cell-based, Cryptococcus neoformans; settings: for MIC50 (minimum concentration to inhibit 50% of fungal growth), C. neoformans: C. neoformans ATCC 32264
Experimental: as §1, §2, §3

SMILES | IC50 [1] [µM] | Inhibition percentage against C. albicans ATCC 10231 (C. albicans ATCC 10231; 3.9 μg∙mL^−1, 48 h) [%] | Inhibition percentage against C. albicans ATCC 10231 (C. albicans ATCC 10231; 7.8 μg∙mL^−1, 48 h) [%] | Inhibition percentage against C. albicans ATCC 10231 (C. albicans ATCC 10231; 15.6 μg∙mL^−1, 48 h) [%] | Inhibition percentage against C. albicans ATCC 10231 (C. albicans ATCC 10231; 62.5 μg∙mL^−1, 48 h) [%] | Inhibition percentage against C. albicans ATCC 10231 (C. albicans ATCC 10231; 125 μg∙mL^−1, 48 h) [%] | Inhibition percentage against C. albicans ATCC 10231 (C. albicans ATCC 10231; 250 μg∙mL^−1, 48 h) [%] | Inhibition percentage against C. albicans ATCC 10231 (C. albicans ATCC 10231; 31. μg∙mL^−1, 48 h) [%] | MIC50 (minimum concentration to inhibit 50% of fungal growth), C. albicans (C. albicans ATCC 10231) [µg/mL] | Antifungal activity against C. albicans (in words) (C. albicans ATCC 10231; at the assayed concentrations (250–3.9 μg∙mL^−1)) | Inhibition percentage against C. neoformans ATCC 32264 (C. neoformans ATCC 32264; 3.9 μg∙mL^−1, 48 h) [%] | Inhibition percentage against C. neoformans ATCC 32264 (C. neoformans ATCC 32264; 7.8 μg∙mL^−1, 48 h) [%] | Inhibition percentage against C. neoformans ATCC 32264 (C. neoformans ATCC 32264; 15.6 μg∙mL^−1, 48 h) [%] | Inhibition percentage against C. neoformans ATCC 32264 (C. neoformans ATCC 32264; 31.2 μg∙mL^−1, 48 h) [%] | Inhibition percentage against C. neoformans ATCC 32264 (C. neoformans ATCC 32264; 62.5 μg∙mL^−1, 48 h) [%] | Inhibition percentage against C. neoformans ATCC 32264 (C. neoformans ATCC 32264; 125 μg∙mL^−1, 48 h) [%] | Inhibition percentage against C. neoformans ATCC 32264 (C. neoformans ATCC 32264; 250 μg∙mL^−1, 48 h) [%] | MIC50 (minimum concentration to inhibit 50% of fungal growth), C. neoformans (C. neoformans ATCC 32264) [µg/mL]
COC(=O)C12CCCC(C)(C)C1CCc1cc(C(C)C)c(OC(=O)CCc3cn(Cc4ccccc4)nn3)c(OC(=O)CCc3cn(Cc4ccccc4)nn3)c12 (stereo not drawn) [Compound 11, Methyl(11,12-O-(3-(1-benzyl-1H-1,2,3-triazol-4-yl)-propanoyloxy)-abieta-8,11,13-triene)-20-oate] | 89.4 | 1.8 ± 0.1 | 1.9 ± 0.5 | 3.5 ± 0.7 | 11.8 ± 0.3 | 23.3 ± 2.1 | 45.7 ± 3.0 | 5.5 ± 1.7 | >250 | weak effect | 0.0 | 2.7 ± 0.9 | 13.3 ± 2.0 | 14.2 ± 1.3 | 19.4 ± 2.1 | 38.3 ± 2.9 | 57.2 ± 2.4 | 250
CC(C)c1cc2c(c(OC(=O)CCCc3cn(Cc4ccccc4)nn3)c1OC(=O)CCCc1cn(Cc3ccccc3)nn1)C13CCCC(C)(C)C1CC2OC3=O (stereo not drawn) [Compound 20, (7β)-11,12-O-(4-(1-benzyl-1H-1,2,3-triazol-4-yl)-butanoyloxy)-7,20-epoxyabieta-8,11,13-trien-20-one] |  | 0.7 ± 0.1 | 1.6 ± 0.2 | 3.0 ± 0.4 | 10.9 ± 1.6 | 21.4 ± 3.4 | 34.5 ± 0.5 | 4.3 ± 0.4 | >250 |  | 0.0 | 0.0 | 0.0 | 2.7 ± 2.7 | 10.4 ± 0.2 | 14.5 ± 1.2 | 22.0 ± 1.0 | >250
CC(C)c1cc2c(c(OC(=O)CCc3cn(Cc4ccc(Br)cc4)nn3)c1OC(=O)CCc1cn(Cc3ccc(Br)cc3)nn1)C13CCCC(C)(C)C1CC2OC3=O (stereo not drawn) [Compound 21, (7β)-11,12-O-(3-(1-(4-bromobenzyl)-1H-1,2,3-triazol-4-yl)-propanoyloxy)-7,20-epoxyabieta-8,11,13-trien-20-one] |  | 0.0 | 0.0 | 2.6 ± 0.6 | 4.4 ± 1.3 | 6.6 ± 1.1 | 8.6 ± 2.0 | 3.5 ± 0.6 | >250 |  | 1.2 ± 0.6 | 6.7 ± 0.3 | 17.9 ± 0.2 | 18.9 ± 0.7 | 19.2 ± 0.2 | 28.8 ± 0.4 | 40.0 ± 0.3 | >250
CC(C)c1cc2c(c(OC(=O)CCCc3cn(Cc4ccc(Br)cc4)nn3)c1OC(=O)CCCc1cn(Cc3ccc(Br)cc3)nn1)C13CCCC(C)(C)C1CC2OC3=O (stereo not drawn) [Compound 22, (7β)-11,12-O-(4-(1-(4-bromobenzyl)-1H-1,2,3-triazol-4-yl)-butanoyloxy)-7,20-epoxyabieta-8,11,13-trien-20-one] |  | 0.0 | 2.9 ± 0.7 | 5.1 ± 0.4 | 7.0 ± 1.0 | 10.1 ± 0.8 | 12.5 ± 2.2 | 5.9 ± 0.2 | >250 |  | 0.0 | 4.7 ± 0.8 | 4.8 ± 0.2 | 7.6 ± 0.9 | 28.5 ± 1.3 | 52.3 ± 2.3 |  | 125
CC(C)c1cc2c(c(OC(=O)CCCc3cn(Cc4ccc([N+](=O)[O-])cc4)nn3)c1OC(=O)CCCc1cn(Cc3ccc([N+](=O)[O-])cc3)nn1)C13CCCC(C)(C)C1CC2OC3=O (stereo not drawn) [Compound 24, (7β)-11,12-O-(4-(1-(4-nitrobenzyl)-1H-1,2,3-triazol-4-yl)-butanoyloxy)-7,20-epoxyabieta-8,11,13-trien-20-one] |  | 0.0 | 0.0 | 0.0 | 4.8 ± 0.6 | 14.3 ± 2.0 | 29.8 ± 1.9 | 3.4 ± 0.5 | >250 |  | 4.9 ± 1.4 | 15.4 ± 0.1 | 21.0 ± 0.1 | 24.3 ± 0.5 | 27.3 ± 0.7 | 31.7 ± 1.6 | 45.8 ± 2.0 | >250

Reference: article PMC6272684, “Synthesis, Antiproliferative and Antifungal Activities of 1,2,3-Triazole-Substituted Carnosic Acid and Carnosol Derivatives” (Molecules, 2015)
